The values below come from patent US20110263546A1, “Polyhydroxylated Bile Acids for Treatment of Biliary Disorders” (priority 2008, published 2011).

Data set [1] concerns TKO, bsep−/−, mdr1a/b−/− and wildtype mice. Conditions: 0.5% cholate diet, cited from earlier work.
Data set [2] shares this test system. Conditions: female TKO mice, 0.5% CA diet.
Method: Mice were maintained in a 12-hour light and dark cycle, at 22° C., with free access to food and water. The mice were fed a normal diet except where specified otherwise in the results.
Chronic toxicity is tested by supplementing the diets of mice (wild-type as well as the hypersensitive bsep KO mice) with 0.1%-0.5% β-muricholate or bile acid according to the invention. Control feeding experiments use cholate as well as ursodeoxycholate.
For a further data set, the system named is mice. Conditions: cited from earlier work.
Data set [3] relates to wild-type mice. Conditions: for Infusion dose tolerated without death (highest dosage tested) / MTD compared with that of UDC: wild-type mice, tail vein infusion. The protocol:
The maximum tolerated dose of bile acid according to the invention was determined. This test is carried out in two ways. First, as a pilot experiment of bile duct cannulation, a bolus of bile acid was infused into mice under anesthesia to measure its acute toxicity to animals. The responses of mice such as breath rate, bile flow rate, histological changes by H&E staining and the like were recorded. […] Using this tolerance level as a reference point, the acute toxicity of the bile acid was determined.
Bile collected was used for HPLC analysis.

Data set [4] has as its system wild-type mice. Put plainly: Bile flow rate (BFR) by bile duct cannulation after tail vein infusion. Format: in vivo, mouse. Conditions: for Bile flow rate, UDC compared with THBAs at similar quantity: 65 μmol/kg body weight infusion; for Bile flow rate on infusion of increasing quantities: 65-400 μmol/kg BW (6β,7αTHBA), 65 and 200 μmol/kg BW (6α,7αTHBA).
Method: After 20 minutes of bile flow equilibration, bile was collected into pre-weighed tubes at 5-minute intervals for 10 minutes. A bolus of 3α,6α,7α,12α-tetrahydroxy-5β-cholan-24-oic acid (6α,7αTHBA, pH.7.4-7.6), 3α,6β,7α,12α-tetrahydroxy-5β-cholan-24-oic acid (6β,7αTHBA, pH.7.4-7.6), ursodeoxycholic acid (UDC, pH.7.4-7.6) or cholic acid (100 μmol/kg body weight) was then infused into the tail vein over a 20-second interval. Bile was then further collected through the cannula at 2-minute intervals for 10 or 20 minutes, followed by 10-minute intervals for 30 minutes. The bile flow rate was calculated by weighing the tubes containing the collected bile.
[5] abbreviates: mice, intravenous bolus (tail vein) infusion under anesthesia.

Entries after “also recorded” stand apart in the source; their conditions may differ. Like-named read-outs stand apart in the source and are kept apart here.

Turning to `C[C@H](CCC(=O)O)[C@H]1CC[C@H]2[C@@H]3[C@H](O)C[C@@H]4C[C@H](O)CC[C@]4(C)[C@H]3C[C@H](O)[C@]12C` [CA, 3α,7α,12α-trihydroxy-5β-cholan-24-oic acid], the Time to death entry in data set [1] (female TKO mice) is recorded as “within a week”; in data set [1] (male bsep KO mice), ≤ 10 days. The “Time until terminally ill or died” value in data set [2] lay in the range of 3 to 7 days.

In the case of `C[C@H](CCC(=O)O)[C@H]1CC[C@H]2[C@@H]3[C@@H](O)C[C@@H]4C[C@H](O)CC[C@]4(C)[C@H]3CC[C@]12C` [UDC, ursodeoxycholic acid, reference compound], in the data set with mice (mouse, in vivo, iv), the LD50 is ~600 µmol/kg. The “Oral LD50 relative to intravenous LD50” value in the data set with mice (rodents) is “at least 15 times”. Moreover, in the data set on wild-type mice [3] (FVB/NJ, mouse, in vivo), the “Infused dose that caused death” value is recorded as ≥ 70 μmol/kg body weight. Also, the “Maximum tolerated dose (MTD)” value with wild-type mice [3] (mouse, in vivo, iv) is on record as 65 μmol/kg of body weight.

Turning to `C[C@H](CCC(=O)O)[C@H]1CC[C@H]2[C@@H]3[C@H](O)[C@@H](O)[C@@H]4C[C@H](O)CC[C@]4(C)[C@H]3C[C@H](O)[C@]12C` [6β,7αTHBA, 3α,6β,7α,12α-tetrahydroxy-5β-cholan-24-oic acid], in the data set with wild-type mice [4], the “Bile flow rate, UDC compared with THBAs at similar quantity” value is “similar” and the “Bile flow rate on infusion of increasing quantities” value was “corresponding increase in bile flow rate”. Further, in the data set on wild-type mice [3] (setting [5]), the “Maximum tolerated dose (MTD)” value was > 500 μmol/kg of body weight. In the data set on wild-type mice [3], the “Infusion dose tolerated without death (highest dosage tested)” value is recorded as 500 μmol/kg of body weight and the “MTD compared with that of UDC” value was “several times higher”.

`C[C@H](CCC(=O)O)[C@H]1CC[C@H]2[C@@H]3[C@H](O)[C@H](O)[C@@H]4C[C@H](O)CC[C@]4(C)[C@H]3C[C@H](O)[C@]12C` [6α,7αTHBA, 3α,6α,7α,12α-tetrahydroxy-5β-cholan-24-oic acid]: in the data set on wild-type mice [4], the “Bile flow rate, UDC compared with THBAs at similar quantity” value is given as “similar” and the “Bile flow rate on infusion of increasing quantities” value is “corresponding increase in bile flow rate”. Also, in the data set with wild-type mice [4] (bolus 100 μmol/kg body weight into tail vein), the “Effect on bile flow rate (BFR)” value is reported as “stimulates bile flow rate; also recorded: promotes bile flow”. Also, the “Maximum tolerated dose (MTD)” value in the data set on wild-type mice [3] (setting [5]) is listed as > 400 μmol/kg of body weight. Also, in the data set with wild-type mice [3], the “Infusion dose tolerated without death (highest dosage tested)” value is listed as 400 μmol/kg of body weight and the “MTD compared with that of UDC” value is listed as “several times higher”.

In general, LD50 refers to the dose expected to kill half of the subjects tested.
